Consider 2 compounds from US20250179033A1 (priority 2021, published 2025).

As usually defined, the IC50 is the midpoint of a concentration-inhibition curve. Broadly, the efflux ratio is a quotient of directional permeabilities that is used to spot active efflux. Broadly, the Papp A→B is the apparent permeability from the apical to the basolateral side of a cell layer. Read a low Papp A→B as poor permeation. For orientation: Papp B→A means the apparent permeability from the basolateral to the apical side of a cell layer.

One data set deals with Caco-2 cells. Description: Caco-2 permeability. The format is in vitro ADME. The settings on record: 10 μM. As for the experimental part:
(§1) Caco-2 Permeability: Caco-2 cells (ATCC®, Manassas, Virginia, United States of America) were grown on 24-well (pore size: 0.4 μm) polycarbonate filters. The monolayers were pre-incubated with pre-warmed HBSS (Hank's balanced salt solution) containing 2.5% HEPES buffer (pH 7.4) for 0.5 h at 37° C. After pre-incubation, the buffer was removed, and the experimental compounds were added to reach a final concentration of 10 μM. 2% bovine serum albumin (BSA) was added to the receiver buffer for the study. The total volume was 400 μL for the apical (A) side and 1200 μL for the basolateral (B) side. For apical to basolateral transport study (A-B), 100 μL each was collected from both sides for sample analysis at the start of the assay and then 200 μL was collected from the […] at 90 minutes (end of the study). The same timepoints and amounts were used for the basolateral to apical transport study (B-A).
(§2) The apparent permeability coefficient (Papp) was calculated from the following equation.
(§3) • v=Volume of the receiver cell • A=Exposed surface area (0.64 cm^2) • C=Initial donor concentration • ∂C/∂t=Change in receiver concentration over time
For orientation: Passage across Caco-2 layers is used to estimate intestinal permeability.

The test system of the next data set is E. coli PQ37. Briefly: Mutagenicity evaluation (SOS-chromotest). The format is cell-based, Escherichia coli. As to conditions: 10 mg/mL. The procedure: Mutagenicity evaluation: Escherichia coli PQ37 strain was grown overnight at 37° C., with shaking, in Luria Broth Base supplemented with 50 μg/mL Ampicillin. Bacteria were grown to mid-logarithmic phase and adjusted to an optical density of 0.4.
The second day, Luria Broth Base supplemented with 1.5% Agar was autoclaved for 15 minutes at 121° C. and then put into a water bath at 55° C. for 1 hour.
80 mL of warm agar was transferred into a plastic bottle (Milian, PETG 2019-0125) supplemented with […] ampicillin and 0.005% X-Gal (dissolved into DMF). 4 mL of E. coli PQ37 was added to the mixture and 70 mL of it was transferred into a square petri dish (Grenier Bio-One, Kremsmunster, Austria, 120×120 mm). Petri dish containing the mixture was dried 15 minutes at RT and once the mixture became solid, 6 mm absorbent disks were stuck on the plate.
5 μL of each compound were added on the disk with a pipet sold under the tradename PIPETMAN® P20 (Gilson S.A.S., Villiers-Le-Bel, France) and the petri dish was incubated overnight at 37° C.
The third day, zones of inhibition were recorded with a ruler and a picture of the plate was taken with a scanner (Canon 8800F, Cannon U.S.A., Inc., Melville, New York, United States of America).
Zone of inhibition was calculated by eye using a ruler and presence/absence of blue halo was reporter.

In a further data set the target is CYP2C9 (Homo sapiens, UniProt P11712). Description: Human CYP inhibition in human liver microsomes. The data set is classed as in vitro ADME. As to conditions: substrate diclofenac, read-out: CYP inhibition IC50, 2C9. The procedure: (§4) Study samples (containing either control inhibitor or test compound) were added into the tubes, vortexed gently and pre-incubated for 5 min at 37° C. 20 μL of NADPH solution was aliquoted into all tubes, then vortexed to start the reaction and to assure adequate mixture of the NADPH. After mixing, the tubes were incubated for 20 min at 37° C. in a shaking water bath and then quenched in […] formic acid/acetonitrile solution. After quenching, the samples were vortexed vigorously for 1 min and centrifuged at 4,000 rpm for 15 min (4° C.). 100 μL of supernatant was transferred to 0.65 ml tubes for LCMS analysis by the bioanalytical method described earlier. The CYP450 substrates and control inhibitors for each enzyme was as follows: CYP1A2 (phenacetin, naphthoflavone), CYP2C9 (diclofenac, sulfaphenazole), CYP2C19 (omeprazole, tranylcypromine), CYP2D6 (dextromethorphan, quinidine), CYP3A4 (midazolam, ketoconazole).
Chain of CYP2C9 (P11712 whole entry): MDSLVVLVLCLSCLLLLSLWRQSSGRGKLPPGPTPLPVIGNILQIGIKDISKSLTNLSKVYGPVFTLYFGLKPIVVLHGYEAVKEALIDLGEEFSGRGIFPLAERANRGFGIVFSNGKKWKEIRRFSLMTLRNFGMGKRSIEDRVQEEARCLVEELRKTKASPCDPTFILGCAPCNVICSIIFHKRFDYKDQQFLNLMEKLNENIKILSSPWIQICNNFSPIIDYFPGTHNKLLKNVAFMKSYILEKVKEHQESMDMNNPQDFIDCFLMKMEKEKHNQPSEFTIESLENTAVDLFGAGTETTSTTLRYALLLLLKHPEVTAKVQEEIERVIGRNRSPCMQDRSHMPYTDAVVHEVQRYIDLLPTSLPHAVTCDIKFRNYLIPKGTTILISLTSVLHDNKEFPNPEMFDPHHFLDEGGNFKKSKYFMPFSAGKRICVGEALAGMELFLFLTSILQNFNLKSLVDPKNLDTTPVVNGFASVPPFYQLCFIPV
Background: Liver microsomes are vesicles of endoplasmic reticulum, rich in cytochrome P450 enzymes.

A further data set addresses T1, CYP1A2 (Homo sapiens, UniProt P05177).
T1 sequence (P05177 1-516): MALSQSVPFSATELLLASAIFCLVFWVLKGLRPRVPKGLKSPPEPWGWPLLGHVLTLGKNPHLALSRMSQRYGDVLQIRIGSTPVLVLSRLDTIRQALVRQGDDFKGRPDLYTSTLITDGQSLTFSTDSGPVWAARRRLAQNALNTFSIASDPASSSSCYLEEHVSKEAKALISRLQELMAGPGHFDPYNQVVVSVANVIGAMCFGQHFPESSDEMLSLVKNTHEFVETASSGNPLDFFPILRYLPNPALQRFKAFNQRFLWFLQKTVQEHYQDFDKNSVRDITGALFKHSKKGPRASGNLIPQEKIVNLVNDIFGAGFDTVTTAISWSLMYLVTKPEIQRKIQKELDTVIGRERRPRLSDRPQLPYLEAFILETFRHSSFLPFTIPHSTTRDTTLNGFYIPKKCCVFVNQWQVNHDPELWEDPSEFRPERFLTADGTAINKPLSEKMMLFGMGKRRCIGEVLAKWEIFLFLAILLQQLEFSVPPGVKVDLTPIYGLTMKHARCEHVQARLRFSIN
Description: Human CYP inhibition in human liver microsomes. The settings on record: substrate phenacetin, read-out: CYP inhibition IC50, 1A2. The data set is classed as in vitro ADME. As for the experimental part: as §4

In the next data set the target is CYP2C19 (Homo sapiens, UniProt P33261). Description: Human CYP inhibition in human liver microsomes. The format is in vitro ADME. The settings on record: substrate omeprazole, read-out: CYP inhibition IC50, 2C19. As for the experimental part:
as §4

The next data set is described as follows: Caco-2 permeability. The data set is classed as in vitro ADME. As to conditions: human, Caco-2, pH 7.4. The procedure:
as §1, §2, §3

Chain of CYP2C19 (P33261 whole entry): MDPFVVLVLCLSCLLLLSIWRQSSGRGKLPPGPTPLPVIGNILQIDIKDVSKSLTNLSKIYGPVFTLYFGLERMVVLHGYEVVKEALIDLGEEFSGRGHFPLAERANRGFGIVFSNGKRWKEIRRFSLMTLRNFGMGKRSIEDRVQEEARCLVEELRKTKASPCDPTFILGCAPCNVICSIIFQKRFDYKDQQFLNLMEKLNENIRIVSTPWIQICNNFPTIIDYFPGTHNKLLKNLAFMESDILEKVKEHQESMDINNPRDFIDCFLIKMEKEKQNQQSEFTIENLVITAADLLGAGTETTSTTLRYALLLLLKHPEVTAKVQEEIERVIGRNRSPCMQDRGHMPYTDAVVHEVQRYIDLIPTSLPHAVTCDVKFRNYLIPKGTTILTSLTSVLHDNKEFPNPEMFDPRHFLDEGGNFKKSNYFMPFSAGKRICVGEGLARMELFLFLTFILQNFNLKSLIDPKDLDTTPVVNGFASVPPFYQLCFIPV

Turning to `Nc1nc(Nc2ccc(Cl)cc2)nn1S(=O)(=O)c1ccc2ccccc2c1` [Compound 1, N3-(4-chlorophenyl)-1-(2-naphthylsulfonyl)-1,2,4-triazole-3,5-diamine], in the data set on Caco-2 cells (90 minutes), the “Caco-2 Papp A-B” value is 0.138 ×10⁻⁶ cm/s and the “Caco-2 Papp B-A” value amounted to 0.122 ×10⁻⁶ cm/s. The “Caco-2 Efflux ratio” value with Caco-2 cells (human, Caco-2, 90 min, pH 7.4) is given as “(×10−6 cm/s) Efflux ratio = 0.883”. The “Genotoxicity in the SOS-chromotest” value in the data set on E. coli PQ37 is reported as “did not appear to be genotoxic”.
`N#C/C=C/c1ccc2c(S(=O)(=O)n3nc(Nc4ccc(C#N)c(Cl)c4)nc3N)cccc2c1` [Compound 20, 4-[[5-amino-1-[[6-[2-cyanovinyl]-1-naphthyl]sulfonyl]-1,2,4-triazol-3-yl]amino]-2-chloro-benzonitrile]: the concentration for half-maximal inhibition (IC50) at CYP2C9 is 1.42 µM; on CYP1A2, greater than 50 µM; on CYP2C19 it was 10.6 µM. Moreover, the efflux ratio at 90 min, 10 μM in the data set “Caco-2 permeability” was found to be 1. Moreover, the Papp A→B at 90 min, 10 μM in the data set “Caco-2 permeability” (10 μM, 90 minutes) stood at 0.4 ×10⁻⁶ cm/s. Moreover, the Papp B→A at 90 min, 10 μM in the data set “Caco-2 permeability” (10 μM, 90 minutes) came to 0.4 ×10⁻⁶ cm/s.
